Experimental data taken from PubChem BioAssay AID624091 (Broad Institute, 2012).
Blank lines part the entries; values can stand above or below the molecule they belong to. Activity calls are given as the source filed them. How the calls were made is not given here.

Experiments:
Experiment in all cases: GSK3 and CDK kinase inhibitor potency, dose response, selectivity assay for GSK3beta inhibitor project, biochemical, selected compounds, dry powder samples (AID 624091)
[1] = molecular target: Cyclin-dependent kinase 1 (Homo sapiens) (UniProt P06493); conditions: Carna mobility shift kinase assay, LabChip, panel; CDC2/CycB1
Sequence of Cyclin-dependent kinase 1 (Homo sapiens) (P06493 whole entry, looked up): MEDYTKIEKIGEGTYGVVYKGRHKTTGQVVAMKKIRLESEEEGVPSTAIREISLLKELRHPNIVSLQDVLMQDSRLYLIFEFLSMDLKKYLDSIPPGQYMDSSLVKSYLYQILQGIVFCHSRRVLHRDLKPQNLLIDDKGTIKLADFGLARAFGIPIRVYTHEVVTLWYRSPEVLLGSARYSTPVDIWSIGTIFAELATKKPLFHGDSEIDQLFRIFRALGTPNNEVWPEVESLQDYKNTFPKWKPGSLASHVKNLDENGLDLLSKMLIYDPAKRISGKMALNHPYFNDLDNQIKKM

[2] = molecular target: Cyclin-dependent kinase 2 (Homo sapiens) (UniProt P24941); conditions: Carna mobility shift kinase assay, LabChip, panel
[3] = molecular target: Glycogen synthase kinase-3 alpha (Homo sapiens) (UniProt P49840); conditions: Carna mobility shift kinase assay, LabChip, panel; GSK3a
Sequence of Glycogen synthase kinase-3 alpha (Homo sapiens) (P49840 whole entry, looked up): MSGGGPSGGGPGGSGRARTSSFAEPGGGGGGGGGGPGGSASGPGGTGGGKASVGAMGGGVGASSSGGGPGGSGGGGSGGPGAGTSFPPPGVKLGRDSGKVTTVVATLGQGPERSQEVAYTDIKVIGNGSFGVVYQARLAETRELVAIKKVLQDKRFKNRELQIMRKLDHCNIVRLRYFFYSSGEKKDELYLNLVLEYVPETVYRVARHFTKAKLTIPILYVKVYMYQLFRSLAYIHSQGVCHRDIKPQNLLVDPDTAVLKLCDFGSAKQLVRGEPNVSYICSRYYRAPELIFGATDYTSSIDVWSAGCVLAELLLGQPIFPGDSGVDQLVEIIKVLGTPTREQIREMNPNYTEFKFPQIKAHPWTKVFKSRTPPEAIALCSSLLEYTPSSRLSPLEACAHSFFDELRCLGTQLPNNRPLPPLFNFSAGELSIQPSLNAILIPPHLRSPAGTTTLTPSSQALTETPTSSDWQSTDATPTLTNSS

[4] = molecular target: Glycogen synthase kinase-3 beta (Homo sapiens) (UniProt P49841); conditions: Carna mobility shift kinase assay, LabChip, panel; GSK3b
Sequence of Glycogen synthase kinase-3 beta (Homo sapiens) (P49841 whole entry, looked up): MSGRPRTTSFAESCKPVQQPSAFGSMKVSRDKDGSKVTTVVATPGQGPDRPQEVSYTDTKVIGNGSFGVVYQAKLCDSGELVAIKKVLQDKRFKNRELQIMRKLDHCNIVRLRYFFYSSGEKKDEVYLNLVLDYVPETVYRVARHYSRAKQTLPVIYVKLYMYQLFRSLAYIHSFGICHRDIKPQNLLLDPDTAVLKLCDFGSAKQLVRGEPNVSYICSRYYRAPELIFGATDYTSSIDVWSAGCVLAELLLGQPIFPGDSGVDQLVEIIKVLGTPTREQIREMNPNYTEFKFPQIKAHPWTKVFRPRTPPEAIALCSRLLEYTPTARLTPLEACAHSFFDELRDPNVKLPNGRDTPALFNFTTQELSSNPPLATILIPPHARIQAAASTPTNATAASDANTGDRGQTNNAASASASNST

[5] = molecular target: Cyclin-dependent kinase 5 (Homo sapiens) (UniProt Q00535); conditions: Carna mobility shift kinase assay, LabChip, panel; CDK5/p25
Sequence of Cyclin-dependent kinase 5 (Homo sapiens) (Q00535 whole entry, looked up): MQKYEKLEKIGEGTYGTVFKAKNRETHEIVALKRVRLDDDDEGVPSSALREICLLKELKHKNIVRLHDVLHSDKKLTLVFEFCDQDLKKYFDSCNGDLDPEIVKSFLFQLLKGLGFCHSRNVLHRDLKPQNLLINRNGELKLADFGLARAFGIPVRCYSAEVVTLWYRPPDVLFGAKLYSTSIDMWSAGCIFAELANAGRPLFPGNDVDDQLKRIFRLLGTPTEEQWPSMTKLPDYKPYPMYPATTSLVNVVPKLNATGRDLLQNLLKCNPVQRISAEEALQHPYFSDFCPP

IC50 [1]: 0.839 µM
IC50 ([2]; CDK2/CycA2): 0.561 µM
IC50 ([2]; CDK2/CycE1): 0.427 µM
IC50 [5]: 0.127 µM
IC50 [3]: 0.00779 µM
IC50 [4]: 0.0155 µM
SMILES: Cc1[nH]nc2c1[C@@H](c1ccccc1C(F)(F)F)C1=C(CC(C)(C)CC1=O)N2

IC50 [1]: > 10 µM (inactive)
IC50 ([2]; CDK2/CycA2): > 10 µM (inactive)
IC50 ([2]; CDK2/CycE1): > 10 µM (inactive)
IC50 [5]: > 10 µM (inactive)
IC50 [3]: inactive
IC50 [4]: inactive
SMILES: Cc1[nH]nc2c1[C@H](c1ccccc1C(F)(F)F)C1=C(CC(C)(C)CC1=O)N2

IC50 [1]: inactive
IC50 ([2]; CDK2/CycA2): inactive
IC50 ([2]; CDK2/CycE1): 0.808 µM
IC50 [5]: 0.223 µM
IC50 [3]: 0.0146 µM
IC50 [4]: 0.0268 µM
SMILES: Cc1[nH]nc2c1C(c1ccccc1C(F)(F)F)C1=C(CC(C)(C)CC1=O)N2 (stereo not drawn)

Second part, the molecule before the results:

SMILES: COc1ccccc1[C@@H]1C2=C(CC(C)(C)CC2=O)Nc2n[nH]c(C(F)(F)F)c21
IC50 [1]: > 10 µM (inactive)
IC50 ([2]; CDK2/CycA2): inactive
IC50 ([2]; CDK2/CycE1): inactive
IC50 [3]: 0.0132 µM
IC50 [4]: 0.0124 µM

SMILES: COc1ccccc1[C@H]1C2=C(CC(C)(C)CC2=O)Nc2n[nH]c(C(F)(F)F)c21
IC50 [1]: > 10 µM (inactive)
IC50 ([2]; CDK2/CycA2): > 10 µM (inactive)
IC50 ([2]; CDK2/CycE1): > 10 µM (inactive)
IC50 [3]: 0.98 µM
IC50 [4]: 0.613 µM

SMILES: COc1ccccc1C1C2=C(CC(C)(C)CC2=O)Nc2n[nH]c(C(F)(F)F)c21 (stereo not drawn)
IC50 [1]: > 10 µM (inactive)
IC50 ([2]; CDK2/CycA2): inactive
IC50 ([2]; CDK2/CycE1): inactive
IC50 [3]: 0.0234 µM
IC50 [4]: 0.0228 µM
